The values below come from patent US9969732B2, “Tetrahydroisoquinoline estrogen receptor modulators and uses thereof” (Genentech, Inc., priority 2016, dated 2018).

The assay concerns the target T1, ER-alpha (WT) (Homo sapiens, UniProt P03372).
T1 construct: endogenous in cells; host or cells: MCF7 breast cancer cells
T1 sequence (P03372 1-595): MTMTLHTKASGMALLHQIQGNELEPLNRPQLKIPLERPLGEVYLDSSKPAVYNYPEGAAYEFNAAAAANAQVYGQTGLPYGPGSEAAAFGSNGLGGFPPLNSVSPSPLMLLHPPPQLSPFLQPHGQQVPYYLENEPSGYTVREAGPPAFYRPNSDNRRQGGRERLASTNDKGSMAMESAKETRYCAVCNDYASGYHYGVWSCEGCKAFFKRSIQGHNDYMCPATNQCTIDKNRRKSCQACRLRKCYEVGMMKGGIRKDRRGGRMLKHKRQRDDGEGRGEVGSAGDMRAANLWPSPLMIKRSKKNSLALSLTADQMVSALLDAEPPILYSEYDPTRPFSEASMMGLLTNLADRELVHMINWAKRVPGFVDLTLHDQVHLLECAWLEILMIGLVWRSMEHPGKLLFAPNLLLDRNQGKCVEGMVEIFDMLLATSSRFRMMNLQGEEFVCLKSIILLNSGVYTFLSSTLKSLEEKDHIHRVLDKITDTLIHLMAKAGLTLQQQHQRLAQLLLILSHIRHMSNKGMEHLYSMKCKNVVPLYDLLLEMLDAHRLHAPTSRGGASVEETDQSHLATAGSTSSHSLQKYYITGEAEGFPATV
Kind of assay: Breast Cancer Cell ERa High Content Fluorescence Imaging Degradation Assay (MCF7 HCS). Format: cell-based. The conditions noted are these: MCF7 breast cancer cells, 4 hours incubation; for EC50: inflexion point of curve; for ERalpha (WT) MCF7 HCS (S inf): plateau of the maximal effect, DMSO and Fulvestrant define 0% and 100% changes in ESR1. Here is the method:
MCF7 breast cancer cells were seeded on day 1 at a density of 10,000 cells per well in 384 well poly-lysine coated tissue culture plate (Greiner #T-3101-4), in 50 μL/well RPMI (phenol red free), 10% FBS (Charcoal stripped), containing L-glutamine. […] Compounds and controls were dispensed using a Labcyte Echo acoustic dispenser to dispense compounds with a predefined serial dilution (1.8×, 10 point, in duplicate) and appropriate backfill and control compounds (final total volume transferred was 417.5 nL and compound dispense volume ranges from 2.5 nL to 417.5 nL; 0.84% DMSO (v/v) final), ultimately producing a concentration range from 0.05 nM to 835 nM. Cell plates were incubated at 37° C., for 4 hours. Fixation and permeabilization were carried out using a Biotek EL406 plate washer and dispenser as follows. Cells were fixed by addition of 15 μL of 16% paraformaldehyde (Electron Microscopy Sciences #15710-S) directly to the 50 μL cell culture medium in each well using the peristaltic pump 5 μL cassette on a Biotek EL406 (final concentration of formaldehyde was 3.7% w/v). Samples were incubated 30 minutes. Well contents was aspirated and 50 μL/well of Phosphate Buffered Saline (PBS) containing 0.5% w/v bovine serum albumen, 0.5% v/v Triton X-100 (Antibody Dilution Buffer) was added to each well. Samples were incubated for 30 minutes. Well contents were aspirated and washed 3 times with 100 μL/well of PBS. Immunofluorescence staining of estrogen receptor alpha (ESR1) was carried out using a Biotek EL406 plate washer and dispenser as follows. The well supernatant was aspirated from the wells and 25 μL/well of anti-ESR1 mAb (F10) (Santa Cruz sc-8002) diluted 1:1000 in Antibody Dilution Buffer was dispensed. Samples were incubated for 2 hours at room temperature. Samples were washed 4 times with 100 μL/well of PBS. 25 μL (microliters)/well of secondary antibody solution (Alexafluor® 488 conjugate anti-mouse IgG (LifeTechnologies #A21202) diluted 1:1000 and Hoechst 33342 1 μg/mL diluted in Antibody Dilution Buffer) were dispensed into each well. Samples were incubated for 2 hours at room temperature. Samples were washed 3 times with 100 μL/well of PBS using a Biotek EL406. Quantitative fluorescence imaging of ESR1 was carried out using a Cellomics Arrayscan V® (Thermo). Fluorescence images of the samples (Channel 1: XF53 Hoechst (DNA stain); Channel 2: XF53 FITC (ESR1 stain)) were acquired using a Cellomics VTI Arrayscan using the Bioapplication “Compartmental Analysis” using the auto-exposure (based on DMSO control wells) setting “peak target percentile” set to 25% target saturation for both channels. Channel 1 (DNA stain) was used to define the nuclear region (Circ). Measurements of “Mean_CircAvgIntCh2”, which is the Alexafluor 488 fluorescence intensity (ESR1) within the nuclear region, was measured on a per cell basis and averaged over all the measured cells. Data analysis was carried out using Genedata Screener Software, with DMSO and 5 nM Fulvestrant treated samples being used to define the 0% and 100% changes in ESR1. The “Robust Fit” method was used to define the inflexion point of curve (EC50) and the plateau of the maximal effect (Sinf).

As usually defined, the EC50 is the concentration that produces a half-maximal response. Take `Oc1ccc2c(c1)CCCN(CC(F)(F)F)[C@@H]2c1ccc(OCCN2CC(CF)C2)cc1` (single isomer, unassigned) [Example 140]: the EC50 is 0.05 nM and the “ERalpha (WT) MCF7 HCS (S inf)” value is −96.6%.

Regarding `C[C@H]1Cc2cc(CO)ccc2[C@H](c2ccc(NC3CN(CCCF)C3)cc2)N1CC(F)(F)F` (single isomer, unassigned) [Example 169], the EC50 turned out to be 37 nM and the “ERalpha (WT) MCF7 HCS (S inf)” value is reported as −60%.

In the case of `C[C@H](O)c1ccc2c(c1)C[C@@H](C)N(CC(F)(F)CO)[C@@H]2c1ccc(OCCN2CC(CF)C2)cc1` [Example 178, 2,2-Difluoro-3-((1R,3R)-1-(4-(2-(3-(Fluoromethyl)azetidin-1-yl)ethoxy)phenyl)-6-((S)-1-hydroxyethyl)-3-methyl-3,4-dihydroisoquinolin-2(1H)-yl)propan-1-ol], the EC50 was more than 100 nM.

Regarding `C[C@@H]1CCN(CCOc2ccc([C@]3(C)c4ccc(O)cc4CCN3CC(C)(C)F)cc2)C1` [Example 126, (R)-2-(2-fluoro-2-methylpropyl)-1-methyl-1-(4-(2-((R)-3-methylpyrrolidin-1-yl)ethoxy)phenyl)-1,2,3,4-tetrahydroisoquinolin-6-ol], the EC50 was determined as 0.24 nM and the “ERalpha (WT) MCF7 HCS (S inf)” value is −68%.

With `CC1(C)Cc2cc(O)ccc2C(c2ccc(OCCN3CC(CF)C3)cc2)N1CC(F)(F)F` (single isomer, unassigned) [Example 158], the midpoint of the response, the EC50, lay at 0.042 nM and the “ERalpha (WT) MCF7 HCS (S inf)” value is −96%.

As for `CS(=O)(=O)N1CCc2cc(O)ccc2[C@@H]1c1ccc(OCCN2CC(CF)C2)cc1` (single isomer, unassigned) [Example 109], the EC50 was not below 100 nM.

In the case of `FCC1CN(CCOc2ccc([C@H]3c4ccc(-c5cn[nH]c5)cc4CCN3CC(F)(F)F)cc2)C1` [Example 145, (1S)-1-[4-[2-[3-(fluoromethyl)azetidin-1-yl]ethoxy]phenyl]-6-(1H-pyrazol-4-yl)-2-(2,2,2-trifluoroethyl)-3,4-dihydro-1H-isoquinoline], the EC50 was not below 100 nM and the “ERalpha (WT) MCF7 HCS (S inf)” value is given as −100%.

`CC(=O)c1ccc2c(c1)C[C@H](C)N(CC(F)(F)CO)[C@H]2c1ccc(OCCN2CC(CF)C2)cc1` [Example 176, 1-((1S,3S)-2-(2,2-Difluoro-3-hydroxypropyl)-1-(4-(2-(3-(fluoromethyl)azetidin-1-yl)ethoxy)phenyl)-3-methyl-1,2,3,4-tetrahydroisoquinolin-6-yl)ethanone] gave a concentration giving a half-maximal response (EC50) of more than 100 nM.

As to `C[C@H]1CN(S(C)(=O)=O)[C@H](c2ccc(OCCN3CC(CF)C3)cc2)c2ccc(O)cc21` [Example 121, (1R,4R)-1-[4-[2-[3-(fluoromethyl)azetidin-1-yl]ethoxy]phenyl]-4-methyl-2-methylsulfonyl-3,4-dihydro-1H-isoquinolin-6-ol], the EC50 was 18.1 nM and the “ERalpha (WT) MCF7 HCS (S inf)” value was −70%.

Consider `CC(C)(F)CN1CCc2cc(O)ccc2[C@@]1(C)c1ccc(OCCN2CC(CF)C2)cc1` (single isomer, unassigned) [Example 108], for which the EC50 stood at 0.0344 nM and the “ERalpha (WT) MCF7 HCS (S inf)” value is −98%.

The compound `C[C@H](CN1CCc2cc(O)ccc2[C@]1(C)c1ccc(OCCN2CC(CF)C2)cc1)C(=O)O` [Example 138, (R)-3-((S)-1-(4-(2-(3-(fluoromethyl)azetidin-1-yl)ethoxy)phenyl)-6-hydroxy-1-methyl-3,4-dihydroisoquinolin-2(1H)-yl)-2-methylpropanoic acid] yielded an EC50 not below 100 nM.

Consider `Oc1ccc2c(c1)CCN(c1ccccc1)C2c1ccc(OC2CN(CCCF)C2)cc1` (centres unmarked) [Example 102, 1-[4-[1-(3-fluoropropyl)azetidin-3-yl]oxyphenyl]-2-phenyl-3,4-dihydro-1H-isoquinolin-6-ol], for which the EC50 was determined as 0.87 nM and the “ERalpha (WT) MCF7 HCS (S inf)” value is given as −98%.

On to `FCC1CN(CCOc2ccc([C@@H]3c4ccc(-c5cn[nH]c5)cc4CCN3CC(F)(F)F)cc2)C1` [Example 146, (1R)-1-[4-[2-[3-(fluoromethyl)azetidin-1-yl]ethoxy]phenyl]-6-(1H-pyrazol-4-yl)-2-(2,2,2-trifluoroethyl)-3,4-dihydro-1H-isoquinoline], for which the EC50 was found to be 0.56 nM and the “ERalpha (WT) MCF7 HCS (S inf)” value was −95%.

The compound `C[C@H]1Cc2cc(C(C)(C)O)ccc2[C@H](c2ccc(OCCN3CC(CF)C3)cc2)N1CC(F)(F)F` [Example 162, 2-((1S,3S)-1-(4-(2-(3-(Fluoromethyl)azetidin-1-yl)ethoxy)phenyl)-3-methyl-2-(2,2,2-trifluoroethyl)-1,2,3,4-tetrahydroisoquinolin-6-yl)propan-2-ol] had an EC50 of 280 nM.

On to `NC(=O)c1ccc2c(c1)CCN(CC(F)(F)F)[C@@H]2c1ccc(OCCN2CC(CF)C2)cc1` [Example 142, (1R)-1-[4-[2-[3-(fluoromethyl)azetidin-1-yl]ethoxy]phenyl]-2-(2,2,2-trifluoroethyl)-3,4-dihydro-1H-isoquinoline-6-carboxamide], for which the EC50 amounted to 29 nM and the “ERalpha (WT) MCF7 HCS (S inf)” value is given as −79%.

As for `Oc1ccc2c(c1)CCCN(CC(F)(F)F)[C@H]2c1ccc(OCCN2CC(CF)C2)cc1` (single isomer, unassigned) [Example 139], the EC50 was found to be 0.101 nM and the “ERalpha (WT) MCF7 HCS (S inf)” value is listed as −95.4%.

Consider `CC1Cc2c(ccc3c2cnn3CC(C)(C)F)C(c2c(F)cc(OCCN3CC(CF)C3)cc2F)N1CC(C)(C)F` (centres unmarked) [Example 122, 6-(2,6-difluoro-4-(2-(3-(fluoromethyl)azetidin-1-yl)ethoxy)phenyl)-3,7-bis(2-fluoro-2-methylpropyl)-8-methyl-6,7,8,9-tetrahydro-3H-pyrazolo[4,3-f]isoquinoline], for which a half-maximal effect (EC50) was put at 25.2 nM and the “ERalpha (WT) MCF7 HCS (S inf)” value is listed as −62%.

With `C[C@H]1Cc2cc(CO)ccc2[C@H](c2ccc(OCCN3CC(CF)C3)cc2)N1CC(F)(F)F` (single isomer, unassigned) [Example 160], the EC50 came out at 19 nM and the “ERalpha (WT) MCF7 HCS (S inf)” value is −88%.

As to `C[C@H]1Cc2cc(O)ccc2[C@H](c2ccc(OCCN3CC(CF)C3)cc2)N1CC(F)(F)F` (single isomer, unassigned) [Example 131], the midpoint of the response, the EC50, lay at 1.4 nM and the “ERalpha (WT) MCF7 HCS (S inf)” value is listed as −96%.

As to `C[C@H]1Cc2ccccc2[C@H](c2ccc(OCCN3CC(CF)C3)cc2)N1CC(F)(F)F` (single isomer, unassigned) [Example 155], the response was half-maximal at 31 nM (EC50) and the “ERalpha (WT) MCF7 HCS (S inf)” value is recorded as −70%.

For `C[C@H]1Cc2c(ccc3[nH]ncc23)[C@H](c2c(F)cc(OCCN3CC(CF)C3)cc2F)N1CC(C)(C)F` (single isomer, unassigned) [Example 124], the EC50 was determined as 3.23 nM and the “ERalpha (WT) MCF7 HCS (S inf)” value is recorded as −90%.

On to `C[C@@H]1Cc2cc(O)ccc2[C@H](c2ccc(OCCN3CC(CF)C3)cc2)N1S(C)(=O)=O` [Example 114, (1S,3R)-1-[4-[2-[3-(fluoromethyl)azetidin-1-yl]ethoxy]phenyl]-3-methyl-2-methylsulfonyl-3,4-dihydro-1H-isoquinolin-6-ol], for which the EC50 is not below 100 nM.
